These results are taken from PMC8400120, “Synthesis of Novel Methyl 7-[(Hetero)arylamino]thieno[2,3-b]pyrazine-6-carboxylates and Antitumor Activity Evaluation: Effects in Human Tumor Cells Growth, Cell Cycle Analysis, Apoptosis and Toxicity in Non-Tumor Cells” (Molecules, 2021).

For series [1], the system named is gastric adenocarcinoma (AGS). Nature of the series: SRB cell growth inhibition assay, AGS. It counts as cell-based, human. The following applies: for GI50: AGS, SRB assay, 48 h incubation, mean ± SD. The method, then: (§1) The antitumor potential of the di(hetero)arylamines 2a–2o was evaluated using the sulforhodamine B (SRB) assay to establish some structure–activity relationships. Four human tumor cell lines (acquired from Leibniz-Institut DSMZ) were used: gastric adenocarcinoma (AGS), colorectal adenocarcinoma (CaCo-2), breast adenocarcinoma (MCF7), and non-small-cell lung cancer (NCI-H460), as well as a non-tumor cell line from African green monkey kidney (Vero) to evaluate the toxicity of the compounds. Ellipticine was used as a positive control, and the results are presented in GI50 values (µM) (Table 2).
(§2) Each cell line was prepared in 96-well plates, at the required density (1.0 × 10^4 cells/well) and incubated for 24 h to achieve cell attachment. The solutions of the compounds were applied and incubated for another 48 h. GI50 values (µM) corresponding to the compound concentration that inhibited 50% of cell growth were determined using the sulforhodamine B assay. Two separate tests were carried out for each compound, in duplicate, with the effects expressed as mean values and standard deviation (SD). Ellipticine was used as a positive control.

For series [2], the system named is colorectal adenocarcinoma (CaCo-2). Nature of the series: SRB cell growth inhibition assay, CaCo-2. Type of series: cell-based, human. Particulars: CaCo-2, SRB assay, 48 h incubation, mean ± SD. Here is the method: as §1, §2
Another series has as its system breast carcinoma (MCF7). Nature of the series: SRB cell growth inhibition assay, MCF7. The following applies: Homo sapiens, MCF7, 48 h, MCF-7, SRB assay, 48 h incubation, mean ± SD. Type of series: cell-based, human. Here is the method: as §1, §2
The subject of series [3] is non-small-cell lung carcinoma (NCI-H460). Nature of the series: SRB cell growth inhibition assay, NCI-H460. Type of series: cell-based, human. The following applies: Homo sapiens, NCI-H460, 48 h, 48 h incubation, mean ± SD. Here is the method: as §1, §2
Series [4] in a line: SRB cell growth inhibition assay, non-tumor Vero cells (toxicity). Particulars: African green monkey, Vero cells (non-tumor kidney cell line), 48 h incubation, mean ± SD. Type of series: cell-based. Here is the method:
as §1, §2

Series [5] has as its system AGS cells. Nature of the series: Flow cytometric cell cycle analysis (PI staining). Type of series: cell-based, human. Particulars: at GI50 concentration, 72 h, vs blank. Here is the method:
This assay is based on the measurement of the DNA content in the PI-labeled nuclei. […] Cell cycle analysis was performed using propidium iodide (PI) staining and flow cytometry. This assay is established on the measurement of the DNA content of nuclei labeled with PI. Following this, the cells were staining according to the protocol PI/RNASE Solution (Immunostep, Spain, Salamanca). The harvested cells corresponding to 2 × 10^5 to 1 × 10^6 cells, were centrifuged for 5 min at 300g, and the supernatant was removed. The cells were fixed and added to 200 µL of 70% ethanol and left in the ethanol at 4 °C for 30 min. Following this, the cells were washed once in 2 mL phosphate-buffered saline (PBS) and centrifuged for 5 min at 300g and resuspended in 500 μL of PI solution (PI/RNASE) and incubated in the dark, at room temperature, for 15 min. Cell cycle phase distribution was evaluated using an Accuri C6 flow cytometer (BD Biosciences, San Jose, CA, USA). The DNA content of at least 20,000 cells was counted per sample, and the percentage of cells in different phases (G0/G1, S, and G2/M phases) of the cell cycle was evaluated using BD Accuri C6 software (BD Biosciences, San Jose, CA, USA). Ellipticine was used as a positive control at its GI50 concentration for AGS cell line.

For series [6], the system named is AGS cells. The experiment in a line: Flow cytometric apoptosis detection (FITC Annexin V/PI). Type of series: cell-based, human. Particulars: at GI50 concentration, 72 h; for Cell death in apoptosis assay: vs blank. Here is the method:
Apoptosis induction was performed using the Fluorescein Isothiocyanate (FITC) Annexin V Apoptosis Kit (BD Biosciences, San Jose, CA, USA), and measured by flow cytometry for compounds 2b, 2f, and 2g (Figure 3). FITC Annexin V staining was used to determine the percentage of cells within a population that are actively undergoing apoptosis. […] Apoptosis detection was performed using the Fluorescein Isothiocyanate (FITC) Annexin V Apoptosis Kit (BD Biosciences, San Jose, CA, USA) and flow cytometry. FITC Annexin V staining is used to determine the percentage of cells within a population that are actively undergoing apoptosis. The cells were washed twice with PBS and resuspended cells in 1× Binding Buffer (10 mM HEPES/NaOH, pH 7.4, 140 mM NaCl, 2.5 mM CaCl2) at a concentration of 1 × 10^6 cells/mL. Following this, 100 μL of the solution (1 × 10^5 cells) was transferred to a 5 mL culture tube and 5 μL of FITC Annexin V (BD Biosciences, San Jose, CA, USA) and 5 μL of PI (BD Biosciences, San Jose, CA, USA) were added to each tube, and they were incubated in the dark, at room temperature, for 15 min. Finally, 400 μL of 1× Binding Buffer was added to each tube. Next, 30,000 cells were acquired using an Accuri C6 flow cytometer (BD Biosciences, San Jose, CA, USA), and the percentage of cell distribution was evaluated with Accuri C6 software (BD Biosciences, San Jose, CA, USA). Ellipticine was used as a positive control at its GI50 concentration for AGS cell line.

Regarding `COC(=O)c1sc2nccnc2c1Nc1ccc(OC)c(OC)c1` [2f, Methyl 7-[(3,4-Dimethoxyphenyl)amino]thieno[2,3-b]pyrazine-6-carboxylate], the concentration for 50% growth inhibition (GI50) in series [1] is 9.2 ± 0.2 µM; in series [1] (Homo sapiens, 48 h) it was less than 10 µM; in series [2] it was 8 ± 1 µM; in series [2] (Homo sapiens, Caco-2, 48 h), less than 10 µM; in the series with breast carcinoma (MCF7) it was 87 ± 1 µM; in series [3], 41 ± 3 µM. This molecule also had a 50% growth inhibitory concentration (GI50) at 48 h in series [4] of 53 ± 3 µM. Further, the “Effect on G0/G1 phases of AGS cell cycle” value with AGS cells [5] is “cell cycle arrest in G0/G1 phases, although this result was not statistically significant”. Besides, the “Effect on G2/M phase of AGS cell cycle” value in the series on AGS cells [5] is listed as “did not present any difference in the percentage of cells compared to the blank”. Moreover, the “High number of cells in apoptosis (expected from GI50 values)” value in the series with AGS cells [6] is listed as “not verified”. The “Cell death in apoptosis assay” value in the series on AGS cells [6] was “moderated cell death compared to the blank”.
`COC(=O)c1sc2nccnc2c1Nc1cc(OC)cc(OC)c1` [2g, Methyl 7-[(3,5-Dimethoxyphenyl)amino]thieno[2,3-b]pyrazine-6-carboxylate] yielded a GI50 in series [1] (Homo sapiens, 48 h) of 7.8 ± 0.2 µM. The “Selectivity for AGS among the cell lines used” value in series [1] (comparison of GI50 values) is recorded as “selective for this cell line”. In series [2] (Homo sapiens, Caco-2, 48 h), this molecule had a GI50 of 38 ± 4 µM. For the same molecule, the concentration for 50% growth inhibition (GI50) in the series with breast carcinoma (MCF7) was 182 ± 5 µM. Besides, in series [3], halving of growth (GI50) required 120 ± 10 µM. In addition, growth in series [4] was halved (GI50 at 48 h) at 144 ± 10 µM. For the same molecule, in the series on AGS cells [5], the “AGS cell cycle profile histogram” value was “high percentage of cell death and an atypical distribution on cell cycle profile”. In the series on AGS cells [6], the “High number of cells in apoptosis (expected from GI50 values)” value is recorded as “not verified” and the “Cell death in apoptosis assay” value is “large amount of cell death”. In the series on AGS cells [6] (Figure 4), the Apoptotic cells is 19,6%, the Dead cells was 60,4% and the “Live Cells” value is on record as 19,0%.
